The results in this text go back to patent publication US9023789B2, “Amylin analogs and pharmaceutical compositions thereof” (Novo Nordisk A/S, priority 2012, dated 2015).

Series [1] concerns the target T1, rat amylin receptor (rat calcitonin receptor + rat RAMP 3) (Rattus norvegicus, UniProt P32214+Q9JJ73).
T1 construct: expressed in transfected cells; host or cells: BHK tk'ts 13 (transient, FuGENE 6), membranes
T1 sequence (P32214 25-479 isoform P32214-2 limits assumed): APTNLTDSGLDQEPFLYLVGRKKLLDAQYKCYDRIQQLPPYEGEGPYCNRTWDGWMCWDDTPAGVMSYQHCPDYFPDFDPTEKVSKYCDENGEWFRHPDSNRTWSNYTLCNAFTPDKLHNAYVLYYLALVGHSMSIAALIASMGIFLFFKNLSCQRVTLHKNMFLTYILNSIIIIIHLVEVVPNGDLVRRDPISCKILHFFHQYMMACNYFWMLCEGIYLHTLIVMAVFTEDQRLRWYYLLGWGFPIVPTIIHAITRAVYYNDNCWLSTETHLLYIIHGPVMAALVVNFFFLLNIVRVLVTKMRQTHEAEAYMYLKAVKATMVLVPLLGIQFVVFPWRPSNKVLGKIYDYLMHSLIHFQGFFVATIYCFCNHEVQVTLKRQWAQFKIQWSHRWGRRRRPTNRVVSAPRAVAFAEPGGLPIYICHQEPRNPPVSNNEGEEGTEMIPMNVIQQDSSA
T1 sequence (Q9JJ73 23-147 partner): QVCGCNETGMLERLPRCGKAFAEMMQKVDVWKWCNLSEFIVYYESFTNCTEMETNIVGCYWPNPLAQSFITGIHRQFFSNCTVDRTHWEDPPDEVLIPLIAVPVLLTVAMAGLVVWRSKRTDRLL
Nature of the series: ASSAY (VI) binding to the rat amylin receptor. The following applies: for IC50: binding to rat amylin receptor, read-out: rAmylin-R bind IC50. In a few lines: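 Membranes for this rat amylin receptor binding assay came from BHK tk′ts 13 cells. The cells were transiently transfected with rat calcitonin receptor using the FuGENE® 6 reagent from Roche, as the manufacturer recommends. The cells were collected approximately 48 hours after transfection, and membranes were then prepared.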

Series [2] in a line: ASSAY (X) pK, determination of T½ in rat. Type of series: in vivo. The following applies: male, Sprague Dawley, plasma, iv, 20 nmol/kg.
Series [3] concerns the target T2, human calcitonin receptor (Homo sapiens, UniProt P30988).
T2 construct: expressed in transfected cells
T2 sequence (P30988 25-474): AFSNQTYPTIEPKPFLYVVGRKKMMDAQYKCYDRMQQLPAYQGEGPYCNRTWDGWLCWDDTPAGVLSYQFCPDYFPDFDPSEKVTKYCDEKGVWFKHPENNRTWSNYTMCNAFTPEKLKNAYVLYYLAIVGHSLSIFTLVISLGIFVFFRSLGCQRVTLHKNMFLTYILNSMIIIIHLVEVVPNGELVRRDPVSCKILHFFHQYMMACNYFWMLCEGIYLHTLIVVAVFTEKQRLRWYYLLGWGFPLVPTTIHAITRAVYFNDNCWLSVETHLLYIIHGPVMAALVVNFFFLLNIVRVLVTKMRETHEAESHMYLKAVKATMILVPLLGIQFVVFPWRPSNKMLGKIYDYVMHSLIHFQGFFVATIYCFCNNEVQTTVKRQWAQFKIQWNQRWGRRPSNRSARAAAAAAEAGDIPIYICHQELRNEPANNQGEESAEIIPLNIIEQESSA
Nature of the series: ASSAY (VII) binding to the human calcitonin receptor (SPA, 125I-Calcitonin).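 Further: cell membranes (35 ng/µL) combined with SPA beads in 40 µL of pH 7.4 Hepes buffer, 384-well format, signal counted on a TopCounter instrument.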 The following applies: read-out: hCTR bind IC50.

In series [4] the target is T3, human calcitonin (a) receptor in BHK570 cells (Homo sapiens, UniProt P30988).
T3 construct: expressed in transfected cells
T3 sequence (P30988 25-474): T2 sequence (P30988 25-474)
Nature of the series: ASSAY (II)a functional assay, human calcitonin receptor (CRE luciferase). It is filed as cell-based. The following applies: read-out: hCTR funct. EC50. In a few lines: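 Receptor activation is measured as cAMP-driven CRE-luciferase expression in BHK cells expressing the calcitonin receptor, with RAMP-3 co-expressed to form the amylin 3(a) receptor. Cells are exposed to compound for 3 hours at 37° C, and luciferase is then quantified by luminescence.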

In the next series the test system is Male Sprague-Dawley rats. Nature of the series: ASSAY (XI) single subcutaneous administration, food intake monitored for 48 hours in rats. The following applies: single s.c., compared to vehicle. Type of series: in vivo, rat. An excerpt:
Assay (XI)—Effect from Single Subcutaneous Administration of Analogue on Plasma Calcium in Rats
Male Sprague-Dawley rats (Taconic Europe, ˜250 g at test date) were acclimatized to reversed day light cycle (lights on from 10 PM to 10 AM) and single housing in online food intake monitoring system (Ellegaard MBRose, Denmark) prior to study start. […] Data are illustrated in graphs as mean±SEM.

The test system of a further series is Male Wistar rats. The series can be described thus: ASSAY (XII) effect from single subcutaneous administration on plasma calcium in rats. Type of series: in vivo, rat. As to the method:
Assay (XII)—Effect from Single Subcutaneous Administration of Analogue on Plasma Calcium in Rats
Male Wistar rats (Taconic Europe, ˜250 g at test date) were acclimatized to handling prior to the study. Rats were divided in groups of five and subcutaneously dosed with test compound at time=0. At time T=−15 min; 1 h, 2 h, 4 h, 7 h, 12 h, and 24 h a blood sample was obtained and heparin stabilized plasma was analysed for total calcium (Cobas, Hitachi). Data are illustrated in graphs as mean±SEM.

The mark [5] stands for this setting: Table 7, rat binding selectivity, rCTR IC50 / rAmylin-R IC50.
Setting [6] is: Table 7a (preferred compounds), rat binding selectivity, rCTR IC50 / rAmylin-R IC50.
Setting [7] is: ratio of rCTR bind IC50 to rAmylin-R bind IC50.

Numbered stars: 1 amine (or outer) side, 2 acyl side, 3 side chain; on linkers, the order of the positions; unused ones are H or OH. Bridge positions count the residues as written; N and C are the ends. Side chains are listed from the residue outwards. Peptide text beside a SMILES is read from it. * marks the point of attachment. C20 diacid = O=C(O)CCCCCCCCCCCCCCCCCCC(=O)*; γGlu = O=C(O)[C@H](CCC(=O)[*:2])N[*:1]

By IC50 is commonly meant the concentration needed to halve the response being measured. The term half-life denotes the time needed for the level to fall by half in the phase considered. A lower half-life goes with rapid decline. With `CC[C@H](C)[C@H](NC(=O)[C@H](C)NC(=O)CNC(=O)[C@H](Cc1ccccc1)NC(=O)[C@H](CC(N)=O)NC(=O)[C@@H]1CCCN1C(=O)[C@H](CO)NC(=O)[C@H](CO)NC(=O)[C@H](Cc1c[nH]cn1)NC(=O)[C@H](CCCNC(=N)N)NC(=O)[C@H](CC(C)C)NC(=O)[C@H](Cc1ccccc1)NC(=O)[C@H](Cc1c[nH]cn1)NC(=O)[C@H](C)NC(=O)[C@H](CC(C)C)NC(=O)[C@H](CCCNC(=N)N)NC(=O)[C@H](CCC(N)=O)NC(=O)[C@@H](NC(=O)[C@H](C)NC(=O)[C@@H]1CSSC[C@H](NC(=O)[C@@H](N)CCCCNC(=O)CC[C@H](NC(=O)CCCCCCCCCCCCCCCCCCC(=O)O)C(=O)O)C(=O)N[C@@H](CC(N)=O)C(=O)N[C@@H]([C@@H](C)O)C(=O)N[C@@H](C)C(=O)N[C@@H]([C@@H](C)O)C(=O)N1)[C@@H](C)O)C(=O)N1CCC[C@H]1C(=O)N[C@@H](CO)C(=O)N[C@@H](CO)C(=O)N[C@H](C(=O)N[C@@H](CC(N)=O)C(=O)N[C@H](C(=O)NCC(=O)N1CCC[C@H]1C(=O)N[C@@H](CC(N)=O)C(=O)N[C@H](C(=O)N[C@@H](Cc1ccc(O)cc1)C(N)=O)[C@@H](C)O)C(C)C)[C@@H](C)O` [Example 67] (H-K([γGlu-C20 diacid])CNTATCATQRLAHFLRHSSPNFGAIPSSTNVGPNTY-NH2; disulfide 2-7 (inferred); N-terminus assumed), the 50% inhibitory concentration (IC50) in series [1] (Table 7) was 0.172 nM. In addition, the “Ratio rCT/rAmylin binding” value in series [1] (setting [5]), in series [1] (setting [6]) and in series [1] (setting [7]) was 85.4 each time. In addition, in series [2], the half-life is 7 h.

A word on the EC50: it is the concentration at which the effect is half-maximal. `CC[C@H](C)[C@H](NC(=O)[C@H](C)NC(=O)CNC(=O)[C@H](Cc1ccccc1)NC(=O)[C@H](CC(N)=O)NC(=O)[C@@H]1CCCN1C(=O)[C@H](CO)NC(=O)[C@H](CO)NC(=O)[C@H](Cc1c[nH]cn1)NC(=O)[C@H](CCCNC(=N)N)NC(=O)[C@H](CC(C)C)NC(=O)[C@H](Cc1ccccc1)NC(=O)[C@H](CCCNC(=N)N)NC(=O)[C@H](C)NC(=O)[C@H](CC(C)C)NC(=O)[C@H](CCCNC(=N)N)NC(=O)[C@H](CCC(N)=O)NC(=O)[C@@H](NC(=O)[C@H](C)NC(=O)[C@@H]1CSSC[C@H](NC(=O)[C@@H](N)CCCCNC(=O)CC[C@H](NC(=O)CCCCCCCCCCCCCCCCCCC(=O)O)C(=O)O)C(=O)N[C@@H](CC(N)=O)C(=O)N[C@@H]([C@@H](C)O)C(=O)N[C@@H](C)C(=O)N[C@@H]([C@@H](C)O)C(=O)N1)[C@@H](C)O)C(=O)N1CCC[C@H]1C(=O)N[C@@H](CO)C(=O)N[C@@H](CO)C(=O)N[C@H](C(=O)N[C@@H](CC(N)=O)C(=O)N[C@H](C(=O)NCC(=O)N1CCC[C@H]1C(=O)N[C@@H](CC(N)=O)C(=O)N[C@H](C(=O)N[C@@H](Cc1ccc(O)cc1)C(N)=O)[C@@H](C)O)C(C)C)[C@@H](C)O` [Example 65] (H-K([γGlu-C20 diacid])CNTATCATQRLARFLRHSSPNFGAIPSSTNVGPNTY-NH2; disulfide 2-7 (inferred); N-terminus assumed): the IC50 in series [3] is 53.5 nM; in series [1] (Table 7), 1.16 nM. Besides, the “Ratio rCT/rAmylin binding” value in series [1] (setting [5]), in series [1] (setting [6]) and in series [1] (setting [7]) was 93.2 throughout. In addition, in series [4], the EC50 was 9.33 nM. The compound further showed a half-life in series [2] of 3 h.

Consider `CC[C@H](C)[C@H](NC(=O)[C@H](C)NC(=O)CNC(=O)[C@H](Cc1ccccc1)NC(=O)[C@H](CC(N)=O)NC(=O)[C@@H]1CCCN1C(=O)[C@H](CO)NC(=O)[C@H](CO)NC(=O)[C@H](Cc1c[nH]cn1)NC(=O)[C@H](CCCNC(=N)N)NC(=O)[C@H](CC(C)C)NC(=O)[C@H](Cc1ccccc1)NC(=O)[C@H](CC(=O)O)NC(=O)[C@H](C)NC(=O)[C@H](CC(C)C)NC(=O)[C@H](CCCNC(=N)N)NC(=O)[C@H](CCC(N)=O)NC(=O)[C@@H](NC(=O)[C@H](C)NC(=O)[C@@H]1CSSC[C@H](NC(=O)[C@@H](N)CCCCNC(=O)CC[C@H](NC(=O)CC[C@H](NC(=O)CCCCCCCCCCCCCCCCCCC(=O)O)C(=O)O)C(=O)O)C(=O)N[C@@H](CC(N)=O)C(=O)N[C@@H]([C@@H](C)O)C(=O)N[C@@H](C)C(=O)N[C@@H]([C@@H](C)O)C(=O)N1)[C@@H](C)O)C(=O)N1CCC[C@H]1C(=O)N[C@@H](CO)C(=O)N[C@@H](CO)C(=O)N[C@H](C(=O)N[C@@H](CC(N)=O)C(=O)N[C@H](C(=O)NCC(=O)N[C@@H](CO)C(=O)N[C@@H](CC(=O)O)C(=O)N[C@H](C(=O)N[C@@H](Cc1ccc(O)cc1)C(N)=O)[C@@H](C)O)C(C)C)[C@@H](C)O` [Example 2] (H-K([γGlu-γGlu-C20 diacid])CNTATCATQRLADFLRHSSPNFGAIPSSTNVGSDTY-NH2; disulfide 2-7; N-terminus assumed), for which the “Food intake red (%) 0-24 h” value in the series with Male Sprague-Dawley rats (3 nmol/kg) is recorded as 39%; with Male Sprague-Dawley rats (30 nmol/kg) it was 72%. The “Food intake red (%) 24-48 h” value in the series with Male Sprague-Dawley rats (3 nmol/kg) was found to be 10%; in the series with Male Sprague-Dawley rats (30 nmol/kg) it was 62%. The “Plasma calcium red (%) 0-12 h (maximal)” value with Male Wistar rats (single s.c., 100 nmol/kg, 0-12 h, compared to vehicle) was found to be 9%. In addition, in the series with Male Wistar rats (single subcutaneous 100 nmol/kg, monitored over 24 hours), the “suppression of plasma calcium level relative to vehicle” value is “does not trigger a notable suppression of the calcium level”. Also, the IC50 in series [1] (Table 7) was found to be 0.295 nM. Besides, the “Ratio rCT/rAmylin binding” value in series [1] (setting [5]), in series [1] (setting [6]) and in series [1] (setting [7]) was 365.7 throughout. Moreover, the half-life in series [2] is 28 h.
